# Patent US20010051646A1, “Method for the improvement of islet signaling in diabetes mellitus and for its prevention” (priority 2000, published 2001)
# Key:
# Format in all cases: in vivo, rat
# [1] = system: Male Zucker fa/fa rats; test: Day-night profile of glycemia and insulinemia, day 16 to day 17 of treatment
# Experimental: The parameters monitored were morning blood glucose and plasma insulin levels. […] An OGTT was performed finally on day 21 to monitor blood glucose and plasma insulin kinetics to assess changes in glucose tolerance. Glibenclamide (DAB 1996; R011150/33372) was donated by Berlin-Chemie (Berlin, Germany). Male Zucker (fa/fa) rats of the body weight class of 300 g were purchased from Charles River (Sulzfeld, Germany). […] Thereafter, the non-diabetic Wistar rats were treated orally once daily with RP (5 mg/kg b.w.) or TP (21.61 mg/kg b.w.) and the diabetic Zucker rats were treated orally once daily with RP (1 mg/kg b.w.) or TP (21.61 mg/kg b.w.) for 21 days at 05.00 p.m. (before regular food intake in the dark phase). The controls were given 1% cellulose solution orally (5 ml/kg). […] The oral drug therapy was continued for one week. […] Blood glucose: Glucose levels were measured using the glucose oxidase procedure (Super G Glukosemeβgerät; Dr. Müller Gerätebau, Freital, Germany). Plasma insulin: Insulin concentrations were assayed by the antibody RIA method (LINCO Research, Inc. St. Charles, Mo., USA).
# [2] = system: Male Zucker fa/fa rats; test: Repeated once-daily oral dosing: morning blood glucose and plasma insulin
# Experimental: The parameters monitored were morning blood glucose and plasma insulin levels. In a day-night profile, glycemia and insulinaemia were monitored from day 16 to day 17. An OGTT was performed finally on day 21 to monitor blood glucose and plasma insulin kinetics to assess changes in glucose tolerance. Glibenclamide (DAB 1996; R011150/33372) was donated by Berlin-Chemie (Berlin, Germany). Male Zucker (fa/fa) rats of the body weight class of 300 g were purchased from Charles River (Sulzfeld, Germany).
# Housing Conditions: Animals were kept single-housed under conventional conditions with controlled temperature (22±2° C.) on a 12/12 hours light/dark cycle (light on at 06:00 a.m.). Standard pellets (ssniff®, Soest, Germany) and tap water acidified with HCl were allowed ad libitum.
# Catheterization of Carotid Artery: After one week of adaptation carotid catheters were implanted in the rats under general anesthesia (injection of 0.25 ml/kg i.p. Rompun® [2%], Bayer, Germany) and 0.5 ml/kg i.p. Velonarkon® (Arzneimittelwerk Dresden, Germany). The animals were allowed to recover for one week. The catheter was flushed with heparin-saline (100 IU/ml) three times per week.
# Thereafter, the non-diabetic Wistar rats were treated orally once daily with RP (5 mg/kg b.w.) or TP (21.61 mg/kg b.w.) and the diabetic Zucker rats were treated orally once daily with RP (1 mg/kg b.w.) or TP (21.61 mg/kg b.w.) for 21 days at 05.00 p.m. (before regular food intake in the dark phase). The controls were given 1% cellulose solution orally (5 ml/kg). Blood samples were taken every morning at 07.30 a.m. from tail veins for measurement of blood glucose and plasma insulin. The last blood samples of this part of the program were taken at 07.30 a. m. on the 15th day to measure blood glucose and plasma insulin. The oral drug therapy was continued for one week. Recording the day-night profile under the above therapy blood glucose (Δt=3 h) and plasma insulin (Δt=3-6 h) were monitored from day 16 (at 05.00 p.m. beginning) to day 17 (at 02.00 p.m. end).
# Blood glucose: Glucose levels were measured using the glucose oxidase procedure (Super G Glukosemeβgerät; Dr. Müller Gerätebau, Freital, Germany).
# Plasma insulin: Insulin concentrations were assayed by the antibody RIA method (LINCO Research, Inc. St. Charles, Mo., USA).
# [3] = system: Male Zucker fa/fa rats; test: OGTT after 21 days treatment: blood glucose and plasma insulin
# Experimental: The parameters monitored were morning blood glucose and plasma insulin levels. […] An OGTT was performed finally on day 21 to monitor blood glucose and plasma insulin kinetics to assess changes in glucose tolerance. Glibenclamide (DAB 1996; R011150/33372) was donated by Berlin-Chemie (Berlin, Germany). Male Zucker (fa/fa) rats of the body weight class of 300 g were purchased from Charles River (Sulzfeld, Germany). Repeated Dosing: 30 male non-diabetic Wistar and 30 male diabetic Zucker rats were randomized to RP (Reference Product: glibenclamide)-, TP- (jest Product: […] Thereafter, the non-diabetic Wistar rats were treated orally once daily with RP (5 mg/kg b.w.) or TP (21.61 mg/kg b.w.) and the diabetic Zucker rats were treated orally once daily with RP (1 mg/kg b.w.) or TP (21.61 mg/kg b.w.) for 21 days at 05.00 p.m. (before regular food intake in the dark phase). The controls were given 1% cellulose solution orally (5 ml/kg). […] The oral drug therapy was continued for one week. […] OGTT: A final OGTT was performed on day 21 with blood sampling from the tail vein. […] The latter were immediately centrifuged and the plasma fractions were stored at −20 ° C. for insulin analysis. Blood glucose: Glucose levels were measured using the glucose oxidase procedure (Super G Glukosemeβgerät; Dr. Müller Gerätebau, Freital, Germany). Plasma insulin: Insulin concentrations were assayed by the antibody RIA method (LINCO Research, Inc. St. Charles, Mo., USA).
structure (smiles),measurement,setting,value
"COc1ccc(Cl)cc1C(=O)NCCc1ccc(S(=O)(=O)NC(=O)NC2CCCCC2)cc1 [glibenclamide, reference compound]","Mean blood glucose, day-night profile","[1]; 02.00 p.m. next day, RP 1 mg/kg, TP 21.61 mg/kg orally once daily",7.34 ± 0.77 mmol/L
same,"Plasma insulin, day-night profile",[1]; 02.00 p.m. the next day,58.3 ± 7.3 ng/mL
same,"Plasma insulin, day-night profile",[1]; 05.00 a.m. (maximum),76.3 ± 8.6 ng/mL
same,"Plasma insulin, day-night profile","[1]; 05.00 p.m., RP 1 mg/kg, TP 21.61 mg/kg orally once daily",50.0 ± 8.2 ng/mL
same,"Plasma insulin, day-night profile",[1]; 08.00 p.m.,57.3 ± 8.2 ng/mL
same,"Mean blood glucose, day-night profile","[1]; 11.00 a.m., RP 1 mg/kg, TP 21.61 mg/kg orally once daily",7.66 ± 1.22 mmol/L
same,"Mean blood glucose, day-night profile","[1]; 11.00 p.m., RP 1 mg/kg, TP 21.61 mg/kg orally once daily",14.80 ± 1.46 mmol/L
same,"Mean blood glucose, day-night profile","[1]; day 16, 05.00 p.m. before drug application, RP 1 mg/kg, TP 21.61 mg/kg orally once daily",7.96 ± 1.13 mmol/L
same,Increase of insulin output compared to the control,"[1]; obese Zucker rat, subchronic treatment",27%
same,Plasma insulin during 14 days in comparison to the control animals,"[2]; rat, in vivo",insulin increase to significantly higher concentrations than in control animals
same,Increase of morning blood glucose,[2]; within two days of therapy,about 1.5 mmol/l
same,Glycemia at the last drug application,"[3]; 05.00 p.m., night before day 21",8.81 ± 1.21 mmol/L
same,G-AUC in comparison to the placebo application,[3]; day 21,increased
same,Blood glucose during OGTT,"[3]; day 21, 50 min",16.33 ± 0.98 mmol/L
same,Blood glucose during OGTT,"[3]; day 21, 80 min",16.24 ± 1.09 mmol/L
same,Blood glucose during OGTT,"[3]; day 21, 100 min",15.13 ± 0.76 mmol/L
same,Blood glucose during OGTT,"[3]; day 21, 120 min",14.81 ± 0.66 mmol/L
same,"Glycemia after overnight fasting (basal, before OGTT)","[3]; day 21, morning (07.30 a. m.)",4.91 ± 0.37 mmol/L
same,Fasting plasma insulin at the beginning of the OGTT,"[3]; day 21, overnight fasting, listed as RP",~12.5 ng/mL
same,Blood glucose increase after the glucose load,[3]; day 21 OGTT,about 11 mmol
same,Plasma insulin after a glucose stimulus,[3]; day 21 OGTT,remained mostly unchanged
same,Glucose area under the curve (G-AUC0-120 min),"[3]; day 21 OGTT, CO-group 823±41",1096 ± 76 mmol·min/L
